Experimental data taken from patent publication US9308260B2, “Anticonvulsive pharmaceutical compositions” (INSERM (INSTITUT NATIONAL DE LA SANTE ET DE LA RECHERCHE …, priority 2007, dated 2016).
Entries after “also recorded” stand apart in the source; their conditions may differ. One block for each molecule: values may come before it.

Assays:
[1] = Blood/plasma amino acid concentrations in vigabatrin-treated rats; assay type: in vivo, rat
Protocol: (§1) As described previously (Duboc et al., 2004), Wistar rats Rj Wi IOPS Han and Balb c mice were purchased from Janvier Breeding Center (Le Genest St Isle, France) at 7 weeks. VGB was dissolved in 0.9% NaCl at a concentration of 125 mg/ml. It was administered at 40 mg (125 mg/ml, 0.32 ml) by daily intraperitoneal injection for 45 or 65 days and at 3 mg (60 mg/ml, 0.05 ml) to mice for 29 days (daily dose of about 200 mg/kg in rats and 150 mg/kg in mice). Vitamin B6 (active form) was administered at a dose of 1 mM/kg (solution 154.46 mg/ml) whereas taurine was provided in the drinking water at 0.1 mol/l.
After 65 days of injection, rats were anesthetized for blood sampling. Anesthesia was induced as described above. Under anesthesia an indwelling catheter was placed in the carotid artery. This method allowed obtaining a single, large, good quality blood sample. A 1 mL blood sampling was taken for each rat in a heparinized blood sampler, immediately centrifuged and frozen at −80° C. Automated amino acid ion chromatography (Pasteur Cerba, France) was used for the quantitative determination of total and free amino acids in the samples.
As described previously (Duboc, A., et al. Vigabatrin, the GABA-transaminase inhibitor, damages cone photoreceptors in rats. Annals of neurology Vol. 55, 695-705 (2004).), Wistar rats Rj Wi IOPS Han or BALB/c mice were purchased from Janvier (Le Genest-St-Isle, France) at between six and seven weeks of age. VGB dissolved in 0.9% NaCl was administered at 40 mg (125 mg/ml, 0.32 ml) to rats by daily intraperitoneal injection for 45 or 65 days and at 3 mg (60 mg/ml, 0.05 ml) to mice for 29 days. These daily doses (rats: 200 mg/kg; mice: 150 mg/kg) are in-line with those described for the treatment of epilepsy in animals (Andre, V., Ferrandon, A., Marescaux, C. & Nehlig, A. Vigabatrin protects against hippocampal damage but is not antiepileptogenic in the lithium-pilocarpine model of temporal lobe epilepsy. Epilepsy research Vol. 47, 99-117 (2001)) or in humans (adult patients: 1-6 mg/kg; children: 50-75 mg/kg; or infants: 100-400 mg/kg) (Chiron, C., Dumas, C., Jambaque, I., Mumford, J. & Dulac, O. Randomized trial comparing vigabatrin and hydrocortisone in infantile spasms due to tuberous sclerosis. Epilepsy research Vol. 26, 389-395 (1997); Lux, A. L., et al. The United Kingdom Infantile Spasms Study comparing vigabatrin with prednisolone or tetracosactide at 14 days: a multicentre, randomised controlled trial. Lancet Vol. 364, 1773-1778 (2004); Aicardi, J., Mumford, J. P., Dumas, C. & Wood, S. Vigabatrin as initial therapy for infantile spasms: a European retrospective survey. Sabril IS Investigator and Peer Review Groups. Epilepsia Vol. 37, 638-642 (1996)). Taurine supplementation was given in drinking water at a concentration of 0.1M. […]

Wistar rats [2] = assay: Photopic electroretinogram (ERG) in vigabatrin-treated rats; assay type: in vivo, rat
Protocol: as §1
(§2) ERG were recorded as described previously after the last VGB injection (Duboc et al., 2004). Anesthesia was induced by an intramuscular injection of a solution containing ketamine (100 mg/kg) and xylazine (10 mg/kg). After 10 min adaptation to a 2.5 cdm^−2 light intensity, ten recordings were obtained with flash intensity of 10 cdsm^−2 at an interstimulus interval 30 s and subsequently averaged. These photopic ERG measurements were performed after 59 days in rats and 29 days in mice.
As described previously (Duboc, A., et al. Vigabatrin, the GABA-transaminase inhibitor, damages cone photoreceptors in rats. Annals of neurology Vol. 55, 695-705 (2004).), Wistar rats Rj Wi IOPS Han or BALB/c mice were purchased from Janvier (Le Genest-St-Isle, France) at between six and seven weeks of age. VGB dissolved in 0.9% NaCl was administered at 40 mg (125 mg/ml, 0.32 ml) to rats by daily intraperitoneal injection for 45 or 65 days and at 3 mg (60 mg/ml, 0.05 ml) to mice for 29 days. […]
Photopic ERGs were recorded after the last VGB injection, as described previously (Duboc, A., et al. Vigabatrin, the GABA-transaminase inhibitor, damages cone photoreceptors in rats. Annals of neurology Vol. 55, 695-705 (2004).). […]

BALB/c mice [3] = assay: Photopic electroretinogram (ERG) in vigabatrin-treated mice; assay type: in vivo, mouse; conditions: 29 days
Protocol: as §1, §2
(§3) As described previously (Duboc, A., et al. Vigabatrin, the GABA-transaminase inhibitor, damages cone photoreceptors in rats. Annals of neurology Vol. 55, 695-705 (2004).), Wistar rats Rj Wi IOPS Han or BALB/c mice were purchased from Janvier (Le Genest-St-Isle, France) at between six and seven weeks of age. VGB dissolved in 0.9% NaCl was administered at 40 mg (125 mg/ml, 0.32 ml) to rats by daily intraperitoneal injection for 45 or 65 days and at 3 mg (60 mg/ml, 0.05 ml) to mice for 29 days. These daily doses (rats: 200 mg/kg; mice: 150 mg/kg) are in-line with those described for the treatment of epilepsy in animals (Andre, V., Ferrandon, A., Marescaux, C. & Nehlig, A. Vigabatrin protects against hippocampal damage but is not antiepileptogenic in the lithium-pilocarpine model of temporal lobe epilepsy. Epilepsy research Vol. 47, 99-117 (2001)) or in humans (adult patients: 1-6 mg/kg; children: 50-75 mg/kg; or infants: 100-400 mg/kg) (Chiron, C., Dumas, C., Jambaque, I., Mumford, J. & Dulac, O. Randomized trial comparing vigabatrin and hydrocortisone in infantile spasms due to tuberous sclerosis. Epilepsy research Vol. 26, 389-395 (1997); Lux, A. L., et al. The United Kingdom Infantile Spasms Study comparing vigabatrin with prednisolone or tetracosactide at 14 days: a multicentre, randomised controlled trial. Lancet Vol. 364, 1773-1778 (2004); Aicardi, J., Mumford, J. P., Dumas, C. & Wood, S. Vigabatrin as initial therapy for infantile spasms: a European retrospective survey. Sabril IS Investigator and Peer Review Groups. Epilepsia Vol. 37, 638-642 (1996)). Taurine supplementation was given in drinking water at a concentration of 0.1M. Light intensity in the animal cages ranged between 125 and 130 lux for rats and between 70 and 85 lux for mice.
Photopic ERGs were recorded after the last VGB injection, as described previously (Duboc, A., et al. Vigabatrin, the GABA-transaminase inhibitor, damages cone photoreceptors in rats. Annals of neurology Vol. 55, 695-705 (2004).). Anesthesia was induced by intraperitoneal injection (0.8 to 1.2 ml/kg) of a solution containing ketamine (40 mg/ml) and xylazine (4 mg/ml Rompum). Animals were light-adapted for 10 minutes with a background light of 25 cdm^−2. Light flashes were then applied on this background light; the light intensity of the flash was 10 cdsm^−2 for the mouse experiments and for the rats maintained in darkness (FIGS. 2, 6) or 25 cdsm^−2 for other experiments (FIGS. 3, 5). Ten recordings were averaged with an interstimulus interval of 30 s.

Wistar rats [4] = assay: Retinal histology quantification in vigabatrin-treated rats; assay type: in vivo, rat
Protocol: as §3, with “mice. […]” for “mice.”
(§4) For quantification, vertical sections along the dorso-ventral axis were selected at the optic nerve. Following DAPI nuclear staining, the lengths of disorganised retinal areas were measured; GFAP immunostaining was used for detection and quantificationof retinal areas with reactive gliosis. […]

BALB/c mice [5] = assay: Retinal histology quantification in vigabatrin-treated mice; assay type: in vivo, mouse
Protocol: as §3
Eye cups were fixed overnight at 4° C. in 4% (wt/vol) paraformaldehyde in phosphate buffered saline (PBS; 0.01M, pH 7.4). The tissue was cryoprotected in successive solutions of PBS containing 10%, 20% and 30% sucrose at 4° C., oriented along the dorso-ventral axis and embedded in OCT (Labonord, Villeneuve d′Ascq, France). Retinal sections (8-10 μm thickness) were permeabilised for five minutes in PBS containing 0.1% Triton X-100 (Sigma, St. Louis, Mo.), rinsed, and incubated in PBS containing 1% bovine serum albumin (Eurobio, Les-Ulis, France), 0.1% Tween 20 (Sigma), and 0.1% sodium azide (Merck, Fontenay-Sous-Bois, France) for two hours at room temperature. The primary antibody added to the solution was incubated for two hours at room temperature. Polyclonal antibodies were directed against VGluT1 (1:2000, Chemicon), rabbit GFAP (1/400, Dako, USA) and mouse cone arrestin (Zhu, X., et al. Mouse cone arrestin expression pattern: light induced translocation in cone photoreceptors. Molecular vision Vol. 8, 462-471 (2002)) (Luminaire junior, LUMIj, 1:20,000). Monoclonal antibodies were directed against Goa (1:2000, Chemicon). Sections were rinsed and then incubated with the secondary antibody, goat anti-rabbit IgG or rabbit anti-mouse IgG conjugated to either Alexa TM594 or Alexa TM488 (1:500, Molecular Probes, Eugene, Oreg.) for two hours. […]
as §4

[6] = Plasma taurine levels in infants with infantile spasms receiving VGB therapy; assay type: in vivo, human; conditions: for Taurine level: measured
Protocol: Blood samples were collected in haemolysis tubes containing heparin (14 IU/ml) and centrifuged (2200 g, 15 min). Plasma amino-acid analysis was performed by ion-exchange chromatography with nihydrin detection using a JEOL AMINOTAC analyser.
We then evaluated whether these findings have any clinical relevance in patients with epilepsy. Plasma taurine levels were reviewed retrospectively in patients presenting infantile spasms, who had received VGB treatment for at least six months in Necker Hospitals for the last 3 years. Plasma amino-acid levels are routinely measured in patients with infantile spasms as part of their etiological work-up, particularly when brain RMI is negative. Data were available in six patients (Table 2 hereunder). […] For one of these two patients (patient 2), the taurine level was measured before starting a 15 month period of VGB therapy and this taurine level was normal. In patient 6, the taurine level was in the lower part of the normal range, but this measurement could have been overestimated by the delayed blood centrifugation. Thus, taurine levels seem to be decreased in VGB-treated epileptic infants.

[7] = vigabatrin alone versus control, listed as Vigabatrin
[8] = vigabatrin alone versus control, listed as vigabatrin
[9] = supplementation in addition to vigabatrin
[10] = VGB with taurine supplementation versus without, p<0.001

Decrease of taurine level versus control animals ([1]; VGB-treated rats, 65 days, p<0.05): 67%
Reduction of methionine concentration versus control animals ([1]; VGB-treated rats, 65 days, significant): 22%
Reduction of glutamic acid concentration versus control animals ([1]; VGB-treated rats, 65 days, statistically significant): 56%
Photopic ERG amplitude (Wistar rats [2]; [7]): decrease
Photopic ERG amplitude (Wistar rats [2]; [8]): decrease in amplitude
Photopic ERG amplitude (BALB/c mice [3]; [7]): decrease
Photopic ERG amplitude (BALB/c mice [3]; [8]): decrease in amplitude
GFAP immunostaining (Wistar rats [4]; VGB alone): increase in GFAP immunostaining
Sprouting of bipolar cell dendrites (BALB/c mice [5]; VGB alone): observed
Density of cone outer and inner segments (BALB/c mice [5]; VGB alone versus control, p<0.001): lower densities
Taurine level ([6]; patient 1, VGB, normal 70 ± 22, delay to plasma preparation <2 h): und*
Taurine level ([6]; patient 2, VGB, normal 70 ± 22, delay <2 h): und
Taurine levels in VGB-treated epileptic infants (overall) ([6]; six patients, VGB for at least six months): decreased
Structure (SMILES): C=CC(N)CCC(=O)O (stereo not drawn) [VGB, 4-amino-5-hexenoic acid]
Photopic ERG amplitude (BALB/c mice [3]; vigabatrin alone versus control): significantly lower photopic ERG amplitude than the control group

Structure (SMILES): NCCS(=O)(=O)O [taurine, 2-aminoethanesulfonic acid]
Plasma levels of taurine ([1]; taurine 0.1M in drinking water of VGB-treated rats, n=7): increased above those of control animals
Photopic ERG amplitude (Wistar rats [2]; supplementation in addition to vigabatrin, versus vigabatrin alone): decreased less than in vigabatrin alone; also recorded: greater in VGB-treated animals receiving taurine supplementation; also recorded: smaller decrease in photopic ERG amplitude
Photopic ERG amplitude (BALB/c mice [3]; [9]): no longer statistically significant; also recorded: smaller decrease in photopic ERG amplitude
Photopic ERG amplitude (BALB/c mice [3]; supplementation in addition to vigabatrin, listed as Taurine): suppressed this decrease in photopic ERG amplitude
GFAP immunostaining (Wistar rats [4]; [10]): less extensive in animals receiving taurine supplementation
Cone segment density (Wistar rats [4]; VGB with taurine supplementation versus without, p<0.05): greater in the VGB-treated group with taurine supplementation
Sprouting of bipolar cell dendrites (BALB/c mice [5]; VGB with taurine supplementation): completely suppressed
Disorganisation of the outer nuclear layer (areas of retinal disorganisation) (BALB/c mice [5]; [10]): smaller areas of retinal disorganisation
Density of cone outer and inner segments (BALB/c mice [5]; VGB with taurine supplementation, p<0.001): prevented this decrease in cone density

Structure (SMILES): Cc1ncc(COP(=O)(O)O)c(C=O)c1O [vitamin B6, pyridoxal-5′-phosphate]
Photopic ERG amplitude (BALB/c mice [3]; [9]): reduced the decrease in photopic ERG amplitude; also recorded: smaller decrease in photopic ERG than with vigabatrin alone
